{"source": "patent US20100285959A1", "about": "“HERBICIDAL MIXTURES” (priority 2006, published 2010)", "key": {"[1]": {"system": "ivyleaf morningglory (IPOHE)", "experiment": "Test 26 field trial, postemergence", "type": "in vivo, Ipomoea hederacea", "set-up": "scale not given here", "text": "(§1) Corn seeds (hybrid ‘Pioneer 31G96’) were planted in mid spring season, 3.8 cm deep in a silt loam soil having 2% organic matter and a pH of 6.6. Plots were 6.1 m long by 3.0 m wide with rows spaced 76 cm apart. Seeds were spaced 15 cm apart within the rows. The field was managed using conventional tillage practices. […] All treatments also included a surfactant. […] Some of the weed species could not be evaluated at every timing. […] Results are the means of the three replicates."}, "winter wheat (TRZAW)": {"system": "winter wheat (TRZAW)", "experiment": "Test 27 field trial, postemergence", "type": "in vivo, Triticum aestivum", "conditions": "cv. Custer, Triticum aestivum (winter wheat), in vivo", "text": "(§2) Wheat seeds (cv. ‘Custer’) were planted in late fall season in a clay loam soil. Plots were 9 m long by 1.8 m wide. The field was managed using conventional tillage practices. […] All treatments also included a surfactant. […] Results are the means of the three replicates."}, "giant foxtail (SETFA)": {"system": "giant foxtail (SETFA)", "experiment": "Test 26 field trial, postemergence", "type": "in vivo, Setaria faberi", "set-up": "scale not given here", "text": "as §1"}, "[2]": {"system": "Pennsylvania smartweed (POLPY)", "experiment": "Test 26 field trial, postemergence", "type": "in vivo, Polygonum pensylvanicum", "text": "as §1"}, "corn (ZEAMD)": {"system": "corn (ZEAMD)", "experiment": "Test 26 field trial, postemergence", "type": "in vivo, Zea mays ssp. indentata", "conditions": "hybrid Pioneer 31G96, Zea mays ssp. indentata (corn), in vivo", "text": "as §1"}, "kochia (KCHSC)": {"system": "kochia (KCHSC)", "experiment": "Test 27 field trial, postemergence", "type": "in vivo, Kochia scoparia", "set-up": "scale not given here", "conditions": "thifensulfuron-methyl 10 g a.i./ha", "text": "as §2"}, "velvetleaf (ABUTH)": {"system": "velvetleaf (ABUTH)", "experiment": "Test 26 field trial, postemergence", "type": "in vivo, Abutilon theophrasti", "set-up": "scale not given here", "text": "as §1"}, "giant ragweed (AMBTR)": {"system": "giant ragweed (AMBTR)", "experiment": "Test 26 field trial, postemergence", "type": "in vivo, Ambrosia trifida", "text": "as §1"}, "jimsonweed (DATST)": {"system": "jimsonweed (DATST)", "experiment": "Test 26 field trial, postemergence", "type": "in vivo, Datura stramonium", "conditions": "28 DAA", "text": "as §1"}, "[3]": {"system": "common lambsquarters (CHEAL)", "experiment": "Test 26 field trial, postemergence", "type": "in vivo, Chenopodium album", "set-up": "scale not given here", "text": "as §1"}, "common ragweed (AMBEL)": {"system": "common ragweed (AMBEL)", "experiment": "Test 26 field trial, postemergence", "type": "in vivo, Ambrosia artemisiifolia", "set-up": "scale not given here", "text": "as §1"}}}
{"smiles": "COC(=O)c1sccc1S(=O)(=O)NC(=O)Nc1nc(C)nc(OC)n1", "note": "[Thifensulfuron-methyl]", "values": [{"measurement": "IPOHE Obs", "setting": "[1]; 14 DAA, 2 g a.i./ha", "result": 57}, {"measurement": "IPOHE Obs", "setting": "[1]; 14 DAA, 4 g a.i./ha", "result": 72}, {"measurement": "IPOHE Obs", "setting": "[1]; 14 DAA, 8 g a.i./ha", "result": 73}, {"measurement": "IPOHE Obs", "setting": "[1]; 28 DAA, 2 g a.i./ha", "result": 17}, {"measurement": "IPOHE Obs", "setting": "[1]; 28 DAA, 4 g a.i./ha", "result": 20}, {"measurement": "IPOHE Obs", "setting": "[1]; 28 DAA, 8 g a.i./ha", "result": 45}, {"measurement": "IPOHE Obs", "setting": "[1]; 56 DAA, 2 g a.i./ha", "result": 0}, {"measurement": "IPOHE Obs", "setting": "[1]; 56 DAA, 4 g a.i./ha", "result": 0}, {"measurement": "IPOHE Obs", "setting": "[1]; 56 DAA, 8 g a.i./ha", "result": 20}, {"measurement": "TRZAW Obs", "setting": "winter wheat (TRZAW); 16 days after application", "result": 0}, {"measurement": "TRZAW Obs", "setting": "winter wheat (TRZAW); 28 days after application", "result": 0}, {"measurement": "TRZAW Obs", "setting": "winter wheat (TRZAW); 49 days after application", "result": 0}, {"measurement": "SETFA Obs", "setting": "giant foxtail (SETFA); 28 DAA, 2 g a.i./ha", "result": 87}, {"measurement": "SETFA Obs", "setting": "giant foxtail (SETFA); 28 DAA, 4 g a.i./ha", "result": 88}, {"measurement": "SETFA Obs", "setting": "giant foxtail (SETFA); 28 DAA, 8 g a.i./ha", "result": 82}, {"measurement": "SETFA Obs", "setting": "giant foxtail (SETFA); 56 DAA, 2 g a.i./ha", "result": 0}, {"measurement": "SETFA Obs", "setting": "giant foxtail (SETFA); 56 DAA, 4 g a.i./ha", "result": 23}, {"measurement": "SETFA Obs", "setting": "giant foxtail (SETFA); 56 DAA, 8 g a.i./ha", "result": 13}, {"measurement": "POLPY Obs", "setting": "[2]; 14 DAA, 8 g a.i./ha", "result": 0}, {"measurement": "POLPY Obs", "setting": "[2]; 28 DAA, 2 g a.i./ha", "result": 73}, {"measurement": "POLPY Obs", "setting": "[2]; 28 DAA, 4 g a.i./ha", "result": 100}, {"measurement": "POLPY Obs", "setting": "[2]; 28 DAA, 8 g a.i./ha", "result": 100}, {"measurement": "ZEAMD Obs", "setting": "corn (ZEAMD); 14 days after application", "result": 0}, {"measurement": "ZEAMD Obs", "setting": "corn (ZEAMD); 56 days after application", "result": 0}, {"measurement": "KCHSC Obs", "setting": "kochia (KCHSC); 16 DAA", "result": 0}, {"measurement": "KCHSC Obs", "setting": "kochia (KCHSC); 28 DAA", "result": 0}, {"measurement": "KCHSC Obs", "setting": "kochia (KCHSC); 49 DAA", "result": 0}, {"measurement": "ABUTH Obs", "setting": "velvetleaf (ABUTH); 14 DAA, 2 g a.i./ha", "result": 53}, {"measurement": "ABUTH Obs", "setting": "velvetleaf (ABUTH); 14 DAA, 4 g a.i./ha", "result": 60}, {"measurement": "ABUTH Obs", "setting": "velvetleaf (ABUTH); 14 DAA, 8 g a.i./ha", "result": 55}, {"measurement": "ABUTH Obs", "setting": "velvetleaf (ABUTH); 28 DAA, 2 g a.i./ha", "result": 75}, {"measurement": "ABUTH Obs", "setting": "velvetleaf (ABUTH); 28 DAA, 4 g a.i./ha", "result": 79}, {"measurement": "ABUTH Obs", "setting": "velvetleaf (ABUTH); 28 DAA, 8 g a.i./ha", "result": 87}, {"measurement": "ABUTH Obs", "setting": "velvetleaf (ABUTH); 56 DAA, 2 g a.i./ha", "result": 33}, {"measurement": "ABUTH Obs", "setting": "velvetleaf (ABUTH); 56 DAA, 4 g a.i./ha", "result": 30}, {"measurement": "ABUTH Obs", "setting": "velvetleaf (ABUTH); 56 DAA, 8 g a.i./ha", "result": 73}, {"measurement": "AMBTR Obs", "setting": "giant ragweed (AMBTR); 14 DAA, 2 g a.i./ha", "result": 75}, {"measurement": "AMBTR Obs", "setting": "giant ragweed (AMBTR); 28 DAA, 2 g a.i./ha", "result": 5}, {"measurement": "AMBTR Obs", "setting": "giant ragweed (AMBTR); 28 DAA, 4 g a.i./ha", "result": 5}, {"measurement": "DATST Obs", "setting": "jimsonweed (DATST); 2 g a.i./ha", "result": 40}, {"measurement": "DATST Obs", "setting": "jimsonweed (DATST); 4 g a.i./ha", "result": 87}, {"measurement": "DATST Obs", "setting": "jimsonweed (DATST); 8 g a.i./ha", "result": 83}, {"measurement": "CHEAL Obs", "setting": "[3]; 14 DAA, 2 g a.i./ha", "result": 65}, {"measurement": "CHEAL Obs", "setting": "[3]; 14 DAA, 4 g a.i./ha", "result": 83}, {"measurement": "CHEAL Obs", "setting": "[3]; 14 DAA, 8 g a.i./ha", "result": 80}, {"measurement": "CHEAL Obs", "setting": "[3]; 28 DAA, 2 g a.i./ha", "result": 90}, {"measurement": "CHEAL Obs", "setting": "[3]; 28 DAA, 4 g a.i./ha", "result": 93}, {"measurement": "CHEAL Obs", "setting": "[3]; 28 DAA, 8 g a.i./ha", "result": 98}, {"measurement": "CHEAL Obs", "setting": "[3]; 56 DAA, 2 g a.i./ha", "result": 27}, {"measurement": "CHEAL Obs", "setting": "[3]; 56 DAA, 4 g a.i./ha", "result": 50}, {"measurement": "CHEAL Obs", "setting": "[3]; 56 DAA, 8 g a.i./ha", "result": 93}, {"measurement": "AMBEL Obs", "setting": "common ragweed (AMBEL); 14 DAA, 2 g a.i./ha", "result": 55}, {"measurement": "AMBEL Obs", "setting": "common ragweed (AMBEL); 14 DAA, 4 g a.i./ha", "result": 72}, {"measurement": "AMBEL Obs", "setting": "common ragweed (AMBEL); 14 DAA, 8 g a.i./ha", "result": 76}, {"measurement": "AMBEL Obs", "setting": "common ragweed (AMBEL); 28 DAA, 2 g a.i./ha", "result": 23}, {"measurement": "AMBEL Obs", "setting": "common ragweed (AMBEL); 28 DAA, 4 g a.i./ha", "result": 53}, {"measurement": "AMBEL Obs", "setting": "common ragweed (AMBEL); 28 DAA, 8 g a.i./ha", "result": 43}, {"measurement": "AMBEL Obs", "setting": "common ragweed (AMBEL); 56 DAA, 2 g a.i./ha", "result": 0}, {"measurement": "AMBEL Obs", "setting": "common ragweed (AMBEL); 56 DAA, 4 g a.i./ha", "result": 17}, {"measurement": "AMBEL Obs", "setting": "common ragweed (AMBEL); 56 DAA, 8 g a.i./ha", "result": 25}]}
